Measured values as given in patent publication US11414385B2, “Compounds and methods for treating, detecting, and identifying compounds to treat apicomplexan parasitic diseases” (The University of Chicago, priority 2015, dated 2022).

Columns and labels:
[1] = system: T. gondii tachyzoites (RH-YFP strain); test: In vitro challenge assay for Toxoplasma tachyzoites (RH-YFP in HFF, fluorescence); format: cell-based, Toxoplasma gondii
Experimental: Human foreskin fibroblasts (HFF) were cultured on a flat, clear-bottomed, black 96-well plate to 90% to 100% confluence. IMDM (1×, [+] glutamine, [+] 25 mM HEPES, [+] Phenol red, 10% FBS [gibco, Denmark]) was removed from each well and replaced with IMDM-C (1×, [+] glutamine, [+] 25 mM HEPES, [−] Phenol red, 10% FBS)[Gibco, Denmark]). Type I RH parasites expressing Yellow Fluorescent Protein (RH-YFP) were lysed from host cells by double passage through a 27-gauge needle. Parasites were counted and diluted to 32,000/mL in IMDM-C. Fibroblast cultures were infected with 3200 tachyzoites of the Type I RH-YFP strain and returned to incubator at 37° C. for 1-2 hours to allow for infection. Diluted solutions of the compounds were made using IMDM-C, and 20 μl were added to each designated well, with triplicates for each condition. Controls included pyrimethamine/sulfadiazine (current standard of treatment), DMSO only, fibroblast only, and an untreated YFP gradient with 2 fold dilutions of the parasite. Cells were incubated at 37° C. for 72 hours. The plates were read using a fluorimeter (Synergy H4 Hybrid Reader, BioTek) To ascertain the amount of yellow fluorescent protein, in relative fluorescence units (RFU), as a measure of parasite burden after treatment. Compounds were not considered effective or pursued for further analysis if there were no signs of inhibition at 1 μM. Data was collected using Gen5 software and analyzed with Excel.
Protocol adapted from Fomovska, et. al. (18,19). Human foreskin fibroblasts (HFF) were cultured on a flat, clear-bottomed, black 96-well plate to 90% to 100% confluence. IMDM (1×, [+] glutamine, [+] 25 mM HEPES, [+] Phenol red, 10% FBS [gibco, Denmark]) was removed from each well and replaced with IMDM-C (1×, [+] glutamine, [+] 25 mM HEPES, [−] Phenol red, 10% FBS)[gibco, Denmark]). Type I RH parasites expressing Yellow Fluorescent Protein (RH-YFP) were lysed from host cells by double passage through a 27-gauge needle. Parasites were counted and diluted to 32,000/mL in IMDM-C. Fibroblast cultures were infected with 3200 tachyzoites of the Type I RH strain expressing Yellow Fluorescent Protein (RH-YFP) and returned to incubator at 37° C. for 1-2 hours to allow for infection (15). Various concentrations of the compounds were made using IMDM-C, and 20 μl were added to each designated well, with triplicates for each condition. Controls included pyrimethamine/sulfadiazine (current standard of treatment), 0.1% DMSO only, fibroblast only, and an untreated YFP gradient with 2 fold dilutions of the parasite. Cells were incubated at 37° C. for 72 hours. Plates were read using a fluorimeter (Synergy H4 Hybrid Reader, BioTek) to ascertain the amount of yellow fluorescent protein, in relative fluorescence units (RFU), as a measure of parasite burden after treatment. Data was collected using Gen5 software. IC50 was calculated by graphical analysis in Excel.
An initial screening assay of 10 μM, 1 μM, 100 nM, and 10 nM was performed. Compounds were not considered effective or pursued for further analysis if there were no signs of inhibition of tachyzoites at 1 μM. If compounds did appear to be effective at 1 μM, another experiment was conducted to assess effect at 1 μM, 500 nM, 250 nM, 125 nM, 62.5 nM, and 31.25 nM.
Protocol adapted from Fomovska, et. al. (Fomovska A, Huang Q, El Bissati K, Mui E J, Witola W H, Cheng G, et al. Novel N-Benzoyl-2-Hydroxybenzamide Disrupts Unique Parasite Secretory Pathway. Antimicrob Agents Chemother [Internet]. 2012 May [cited 2015 Jul. 8]; 56(5):2666-82; Fomovska A, Wood R D, Mui E, Dubey J P, Ferreira L R, Hickman M R, et al. Salicylanilide inhibitors of Toxoplasma gondii. J Med Chem. 2012 Oct. 11; 55(19):8375-91.). Human foreskin fibroblasts (HFF) were cultured on a flat, clear-bottomed, black 96-well plate to 90% to 100% confluence. […]

[2] = target: T1, Plasmodium falciparum bc1 complex cytochrome c reductase (Pfbc1) (Plasmodium falciparum, UniProt Q02768); test: Pfbc1 native assay (cytochrome c reduction by parasite extract); format: biochemical; conditions: compound 1 μM; mean ± s.e.m. of 4 independent experiments
T1 construct: Parasite extract was then prepared by disruption with a sonicating probe; endogenous in cells; host or cells: P. falciparum 3D7 blood-stage parasites, saponin-freed and sonicated (crude parasite extract)
T1 sequence (Q02768 1-376): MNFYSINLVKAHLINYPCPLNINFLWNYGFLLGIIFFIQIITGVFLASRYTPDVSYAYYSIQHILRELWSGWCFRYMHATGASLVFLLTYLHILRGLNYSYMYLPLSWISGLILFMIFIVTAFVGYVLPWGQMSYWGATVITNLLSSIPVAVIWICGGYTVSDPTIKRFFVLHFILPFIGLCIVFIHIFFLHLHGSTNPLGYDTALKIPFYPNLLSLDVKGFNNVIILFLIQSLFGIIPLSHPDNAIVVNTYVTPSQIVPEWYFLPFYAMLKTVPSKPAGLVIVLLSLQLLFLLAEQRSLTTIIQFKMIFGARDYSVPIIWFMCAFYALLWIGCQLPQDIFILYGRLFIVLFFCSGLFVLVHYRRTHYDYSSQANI
Experimental: Plasmodium falciparum: 3D7 strain was obtained from the Liverpool School of Tropical Medicine. Protease cocktail inhibitor was obtained from Roche. Bradford protein assay dye reagent was obtained from Bio-Rad. All other reagents were obtained from Sigma-Aldrich. Decylubiquinol was produced as per Fisher et al. (Fisher et al. 2004)^21. In brief, 25 mg of decylubiquinone were dissolved in 400 μl of nitrogen-saturated hexane. An equal volume of aqueous 1 M sodium dithionite was added, and the mixture vortexed until colorless. The organic phase containing the decylubiquinol was collected, the solvent was evaporated under N2 and the decylubiquinol finally dissolved in 100 μl of 96% ethanol (acidified with 10 mM HCl). Concentrations of decylubiquinol was determined spectrophotometrically on a Cary 300 Bio UV/visible spectrophotometer (Varian, UK) from absolute spectra, using ε288-320=8.1 mM-1·cm^−1. Decylubiquinol was stored at −80° C. and used within two weeks.
The protocol for the preparation of parasite extract was adapted from Fisher et al. (Fisher et al. 2009)^22. Free parasites were prepared from infected erythrocytes pooled from five T75 flasks, by adding 5 volumes of 0.15% (w/v) saponin in phosphate-buffered saline (137 mM NaCl, 2.7 mM KCl, 1.76 mM K2HPO4, 8.0 mM Na2HPO4, 5.5 mM D-glucose, pH 7.4) for 5 min, followed by three washes by centrifugation in RPMI containing HEPES (25 mM), and a final resuspension in potassium phosphate buffer (50 mM K2HPO4, 50 mM KH2PO4, 2 mM EDTA, pH7.4) containing a protease inhibitor cocktail (Complete Mini; Roche). Parasite extract was then prepared by disruption with a sonicating probe for 5 s, followed by a 1 min rest period on ice to prevent the sample overheating. […] The protein concentration of the parasite extract was determined by Bradford protein assay (Bio-Rad).
Plasmodium falciparum bc1 complex cytochrome c reductase (Pfbc1) activity was measured by monitoring cytochrome c reduction at 550 versus 542 nm using a Cary 300 Bio UV-Visible Spectrophotometer (Varian, UK), using a protocol adapted from Fisher et al. (Fisher et al. 2009)^21-23. […]

[3] = system: T. gondii bradyzoites (EGS strain); test: EGS strain bradyzoite assay (cysts in HFF, dolichos/BAG1 staining); format: cell-based, Toxoplasma gondii; conditions: 5 and 10 μM, in HFF
Experimental: (§1) HFF cells were grown in IMDM (1×, [+] glutamine, [+] 25 mM HEPES, [+] Phenol red, 10% FBS, [Gibco, Denmark]) on removable, sterile glass disks in the bottom of a clear, flat-bottomed 24-well plate. Cultures were infected with 3×10^4 parasites (EGS strain) per well, in 0.5 mL media and plate was returned to incubator at 37° C. overnight. The following day, the media was removed and clear IMDM and compounds were added to making various concentrations of the drug, to a total volume of 0.5 mL. Two wells were filled with media only, as a control. Plates were returned to the 37° C. incubator for 72 hours.
Efficacy was determined following fixation. Staining was used to determine the numbers of cysts in cultures without and with treatment with the test compounds. Cells were fixed using 4% paraformaldehyde and stained with Fluorescein-labeled Dolichos Biflorus Agglutinin, DAPI, and anti-BAG1, and anti-SAG1. Disks were removed and mounted onto glass slides and visualized using microscopy (Nikon Tl7). Slides were also scanned using a CRi Pannoramic Scan Whole Slide Scanner and viewed using Panoramic Viewer Software.
as §1, with “[gibco,” for “[Gibco,”, “2” for “Two”, “72 hours, and checked once every 24” for “72”, “hours. If tachyzoites were visible in the control before 72 hours, the cells were fixed and stained.” for “hours.”
Cells were fixed using 4% paraformaldehyde and stained with Fluorescein-labeled Dolichos Biflorus Agglutinin, DAPI, and BAG1. Disks were removed and mounted onto glass slides and visualized using microscopy (Nikon Tl7). Slides were scanned using a CRi Pannoramic Scan Whole Slide Scanner and viewed using Panoramic Viewer Software. Effects of the compounds were quantified by counting cysts in the controls and treated cells. Cysts and persisting organisms were counted in a representative field of view and then multiplied by a factor determined by the total area of the disk in order to estimate the number of cysts and organisms in each condition.
HFF cells were grown in IMDM (1×, [+] glutamine, [+] 25 mM HEPES, [+] Phenol red, 10% FBS, [gibco, Denmark]) on removable, sterile glass disks in the bottom of a clear, flat-bottomed 24-well plate. Cultures were infected with 3×10^4 parasites (EGS strain) per well, in 0.5 mL media and plate was returned to incubator at 37° C. overnight. The following day, the media was removed and clear IMDM and compounds were added to making various concentrations of the drug, to a total volume of 0.5 mL. 2 wells were filled with media only, as a control. Plates were returned to the 37° C. incubator for 72 hours, and checked once every 24 hours. If tachyzoites were visible in the control before 72 hours, the cells were fixed and stained. Cells were fixed using 4% paraformaldehyde and stained with Fluorescein-labeled Dolichos Biflorus Agglutinin, DAPI, and BAG1. Disks were removed and mounted onto glass slides and visualized using microscopy (Nikon Tl7). Slides were scanned using a CRi Pannoramic Scan Whole Slide Scanner and viewed using Panoramic Viewer Software. Effects of the compounds were quantified by counting cysts in the controls and treated cells. Cysts and persisting organisms were counted in a representative field of view and then multiplied by a factor determined by the total area of the disk in order to estimate the number of cysts and organisms in each condition. Data was collected using Gen5 software. IC50 was calculated by graphical analysis in Excel.

## O=c1c2c([nH]c(CO)c1-c1ccc(Oc3ccc(OC(F)(F)F)cc3)cc1)CCCC2 [JAG099, 3(4-(4-Trifluoromethoxyphenoxy)phenyl)-2-(methylhydroxy)-5,6,7,8-tetrahydroquinolin-4(1H)-one]
[1]; Toxoplasma gondii, RH-YFP, read-out: Tachy IC50
  IC50: 320 nM
[2]
  Inhibition of cytochrome c reduction (% atovaquone response): 81.3 ± 6.0 % atovaquone response

## Vivoporter-PMOs: "Vivo-PMO (Vivo porter linked to morpholinos) to knock down cytochrome b"; sequence 5′ AGTGTTCTCGAAACCATGCTAACAC 3′ (SEQ ID NO: 5) (all phosphorodiamidate morpholino (PMO); Vivo-Porter delivery moiety attached to morpholino, further chemistry not fully specified; listed as Homo sapiens) [reference compound]
[1]; 5 and 10 μM, vs off target control
  effect on tachyzoite replication: modest effect
[3]
  effect on size and number of EGS cysts: small effect
